Legend:
[1] = molecular target: T1, Muscarinic acetylcholine receptor M2 (Homo sapiens, UniProt P08172)
T1 sequence (P08172 whole entry): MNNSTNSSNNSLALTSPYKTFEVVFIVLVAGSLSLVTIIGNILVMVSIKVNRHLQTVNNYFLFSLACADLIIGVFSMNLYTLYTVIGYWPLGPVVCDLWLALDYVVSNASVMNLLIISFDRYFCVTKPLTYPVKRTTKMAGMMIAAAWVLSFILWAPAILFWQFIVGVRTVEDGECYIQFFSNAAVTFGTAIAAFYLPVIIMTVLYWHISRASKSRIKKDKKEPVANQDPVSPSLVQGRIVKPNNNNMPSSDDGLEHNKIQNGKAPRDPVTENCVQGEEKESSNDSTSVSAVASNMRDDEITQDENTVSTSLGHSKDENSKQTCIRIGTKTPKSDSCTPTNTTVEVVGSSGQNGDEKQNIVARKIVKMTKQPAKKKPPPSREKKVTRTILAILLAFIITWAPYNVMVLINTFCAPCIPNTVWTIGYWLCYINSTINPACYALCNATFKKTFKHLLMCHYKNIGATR

[2] = molecular target: T2, Thromboxane A2 receptor (Homo sapiens, UniProt P21731); type: functional
T2 sequence (P21731 whole entry): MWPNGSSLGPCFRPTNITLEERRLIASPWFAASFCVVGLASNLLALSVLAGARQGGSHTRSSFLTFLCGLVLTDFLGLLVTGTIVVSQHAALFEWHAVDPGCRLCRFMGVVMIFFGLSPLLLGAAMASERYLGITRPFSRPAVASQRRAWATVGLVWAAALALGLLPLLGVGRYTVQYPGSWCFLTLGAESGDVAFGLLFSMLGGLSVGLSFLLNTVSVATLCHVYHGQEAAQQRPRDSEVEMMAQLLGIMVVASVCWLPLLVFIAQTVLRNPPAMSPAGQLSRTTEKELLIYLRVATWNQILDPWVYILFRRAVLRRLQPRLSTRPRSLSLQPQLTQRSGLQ

[3] = molecular target: T3, Oxysterols receptor LXR-beta (Homo sapiens, UniProt P55055); type: functional
T3 sequence (P55055 whole entry): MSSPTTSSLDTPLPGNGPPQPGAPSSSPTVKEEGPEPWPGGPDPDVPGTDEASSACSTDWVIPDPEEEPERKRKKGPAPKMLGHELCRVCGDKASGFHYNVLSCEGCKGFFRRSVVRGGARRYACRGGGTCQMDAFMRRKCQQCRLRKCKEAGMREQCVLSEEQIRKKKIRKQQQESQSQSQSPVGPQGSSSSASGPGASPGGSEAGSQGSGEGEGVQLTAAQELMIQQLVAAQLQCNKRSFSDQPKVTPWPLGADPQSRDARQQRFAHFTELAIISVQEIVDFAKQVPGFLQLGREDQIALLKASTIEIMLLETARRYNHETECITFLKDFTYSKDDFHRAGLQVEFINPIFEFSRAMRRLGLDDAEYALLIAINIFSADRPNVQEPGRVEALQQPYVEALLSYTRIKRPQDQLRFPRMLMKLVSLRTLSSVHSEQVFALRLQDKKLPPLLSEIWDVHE

[4] = molecular target: T4, Bile acid receptor (Homo sapiens, UniProt Q96RI1); type: functional
T4 sequence (Q96RI1 whole entry): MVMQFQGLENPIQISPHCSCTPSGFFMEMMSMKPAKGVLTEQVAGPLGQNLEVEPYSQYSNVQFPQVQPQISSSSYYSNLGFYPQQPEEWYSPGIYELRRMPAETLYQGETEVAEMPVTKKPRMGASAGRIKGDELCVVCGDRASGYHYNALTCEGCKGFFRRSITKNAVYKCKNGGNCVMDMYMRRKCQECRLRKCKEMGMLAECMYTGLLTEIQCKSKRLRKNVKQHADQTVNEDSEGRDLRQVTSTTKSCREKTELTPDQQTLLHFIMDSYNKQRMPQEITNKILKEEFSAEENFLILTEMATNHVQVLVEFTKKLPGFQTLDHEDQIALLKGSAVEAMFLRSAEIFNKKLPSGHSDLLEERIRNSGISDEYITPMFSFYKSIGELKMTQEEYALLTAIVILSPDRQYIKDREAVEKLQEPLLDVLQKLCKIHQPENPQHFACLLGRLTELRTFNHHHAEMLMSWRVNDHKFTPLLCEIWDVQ

[5] = molecular target: T5, Oxysterols receptor LXR-alpha (Homo sapiens, UniProt Q13133); type: functional
T5 sequence (Q13133 whole entry): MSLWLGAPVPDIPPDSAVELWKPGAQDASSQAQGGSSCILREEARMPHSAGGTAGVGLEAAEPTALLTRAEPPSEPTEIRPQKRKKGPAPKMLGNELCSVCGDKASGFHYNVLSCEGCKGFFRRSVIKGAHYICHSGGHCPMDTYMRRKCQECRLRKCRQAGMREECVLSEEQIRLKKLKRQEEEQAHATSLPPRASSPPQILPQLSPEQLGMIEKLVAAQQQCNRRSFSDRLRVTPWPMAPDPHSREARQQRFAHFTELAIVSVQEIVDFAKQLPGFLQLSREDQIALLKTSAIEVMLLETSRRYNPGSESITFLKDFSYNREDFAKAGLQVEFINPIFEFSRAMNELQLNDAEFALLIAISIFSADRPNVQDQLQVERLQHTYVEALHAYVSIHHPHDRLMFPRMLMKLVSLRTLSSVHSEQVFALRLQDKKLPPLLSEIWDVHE

[6] = molecular target: T6, Retinoic acid receptor gamma (Homo sapiens, UniProt P13631); type: functional, cell-based
T6 sequence (P13631 whole entry): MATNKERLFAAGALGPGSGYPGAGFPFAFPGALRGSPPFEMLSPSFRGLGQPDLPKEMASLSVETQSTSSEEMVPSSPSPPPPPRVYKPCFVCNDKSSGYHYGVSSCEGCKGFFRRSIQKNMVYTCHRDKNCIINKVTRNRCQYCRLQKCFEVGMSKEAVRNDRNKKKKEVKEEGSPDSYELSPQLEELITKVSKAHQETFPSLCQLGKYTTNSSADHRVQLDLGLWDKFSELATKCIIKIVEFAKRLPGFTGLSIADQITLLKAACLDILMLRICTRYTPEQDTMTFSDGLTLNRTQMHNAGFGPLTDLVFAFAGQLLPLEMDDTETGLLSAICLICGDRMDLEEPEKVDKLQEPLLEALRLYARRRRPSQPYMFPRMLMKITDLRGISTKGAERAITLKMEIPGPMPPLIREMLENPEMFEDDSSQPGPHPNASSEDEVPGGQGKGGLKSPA

[7] = molecular target: 5-hydroxytryptamine receptor 2A (Homo sapiens, UniProt P28223)
Chain of 5-hydroxytryptamine receptor 2A (P28223 whole entry): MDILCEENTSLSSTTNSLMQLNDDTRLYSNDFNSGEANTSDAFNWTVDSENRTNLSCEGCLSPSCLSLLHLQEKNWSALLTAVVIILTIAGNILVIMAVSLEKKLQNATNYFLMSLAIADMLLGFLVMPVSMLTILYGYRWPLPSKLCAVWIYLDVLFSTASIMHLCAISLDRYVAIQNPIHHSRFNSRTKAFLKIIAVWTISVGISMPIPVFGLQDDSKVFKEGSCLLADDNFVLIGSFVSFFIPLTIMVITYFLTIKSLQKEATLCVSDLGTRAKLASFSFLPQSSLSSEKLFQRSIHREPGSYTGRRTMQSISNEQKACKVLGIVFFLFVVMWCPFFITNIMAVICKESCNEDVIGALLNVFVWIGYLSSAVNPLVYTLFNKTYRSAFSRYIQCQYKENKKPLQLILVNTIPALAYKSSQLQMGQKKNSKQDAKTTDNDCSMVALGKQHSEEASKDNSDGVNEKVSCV
Further: assay procedure not described here.

AC50 [5] | AC50 [6] | SMILES | AC50 [2] | also measured
– | – | COc1cc2nccc(Oc3ccc(NC(=O)C4(C(=O)Nc5ccc(F)cc5)CC4)cc3)c2cc1OC [CABOZANTINIB] | > 30 µM | AC50 [1]: > 30 µM
> 30 µM | > 30 µM | CC(C(=O)O)c1ccc2c(c1)[nH]c1ccc(Cl)cc12 (stereo not given) [CARPROFEN] | – | AC50 [3]: > 30 µM; AC50 [4]: > 30 µM
– | – | CN(C)CCc1c[nH]c2ccc(Cn3cncn3)cc12 [RIZATRIPTAN] | – | AC50 [7]: > 10 µM
> 30 µM | > 30 µM | CCN(CC)CCNC(=O)c1c(C)[nH]c(/C=C2\C(=O)Nc3ccc(F)cc32)c1C [SUNITINIB] | – | –
– | – | C=CC[C@@H]1/C=C(\C)C[C@H](C)C[C@H](OC)[C@H]2O[C@@](O)(C(=O)C(=O)N3CCCC[C@H]3C(=O)O[C@H](/C(C)=C/[C@@H]3CC[C@@H](O)[C@H](OC)C3)[C@H](C)[C@@H](O)CC1=O)[C@H](C)C[C@@H]2OC [TACROLIMUS ANHYDROUS] | > 30 µM | –

Source: ChEMBL document CHEMBL5291721, “A preclinical secondary pharmacology resource illuminates target-adverse drug reaction associations of marketed drugs” (Nat Commun, 2023)
